Source: patent US12503436B2, “Compounds and compositions for treating conditions associated with STING activity” (NOVARTIS PHARMA AG, priority 2021, dated 2025)
pEC50: −log10 of the molar value.

target: STING (Homo sapiens, UniProt Q86WV6, G230A/H232R/R293Q/R71H); test: STING reporter assay in THP1-Dual KO-IFNAR2 cells (2′3′cGAMP stimulation, luciferase reporter); format: cell-based; settings: 15 μM 2′3′cGAMP stimulation, 24 h, read-out: Pharmaron, THP1_IFNAR2 STING 24 h Luci Normalized: GeoMean EC50
Sequence (Q86WV6 whole entry R71H/G230A/H232R/R293Q): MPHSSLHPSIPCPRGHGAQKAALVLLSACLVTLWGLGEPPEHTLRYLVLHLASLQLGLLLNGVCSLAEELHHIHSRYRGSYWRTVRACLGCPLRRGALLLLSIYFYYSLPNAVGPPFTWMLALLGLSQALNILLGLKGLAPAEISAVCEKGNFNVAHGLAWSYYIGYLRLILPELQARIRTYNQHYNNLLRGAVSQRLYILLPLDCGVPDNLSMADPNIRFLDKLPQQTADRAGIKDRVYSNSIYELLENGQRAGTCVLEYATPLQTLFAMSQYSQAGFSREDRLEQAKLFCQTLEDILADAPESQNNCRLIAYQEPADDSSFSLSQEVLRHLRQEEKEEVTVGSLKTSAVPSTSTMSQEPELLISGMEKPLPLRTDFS
Method in brief: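 THP1-Dual KO-IFNAR2 cells (2×10E6 cells/mL) with compounds at 0.0017-100 μM final, stimulated with 15 μM final 2′3′cGAMP delivered by Lipofectamine 2000; 24 h at 37 °C. Luciferase in supernatant read with QUANTI-Luc Plus; EC50 derived from luminescence.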

SMILES	pEC50
CO[C@H]1C[C@H](C(=O)Nc2c[nH]c3ccc(OCC[C@@H]4C[C@@H]5CN(CC(F)(F)F)C[C@@H]5C4)cc23)C1 [Compound 296, trans-3-methoxy-N-(5-(2-((3aR,5r,6aS)-2-(2,2,2-trifluoroethyl)octahydrocyclopenta[c]pyrrol-5-yl)ethoxy)-1H-indol-3-yl)cyclobutane-1-carboxamide]	6.70 to 7.40
COC1CC(C(=O)Nc2c[nH]c3ccc(CCOc4ccc(C(F)(F)F)cc4)cc23)C1 (stereo not drawn) [Compound 297, 3-methoxy-N-(5-(2-(4-(trifluoromethyl)phenoxy)ethyl)-1H-indol-3-yl)cyclobutane-1-carboxamide]	6.00 to 6.70
COCCN1CC(C(=O)Nc2c[nH]c3ccc(OCCc4ccc(C(F)(F)F)cc4)cc23)C1 [Compound 298, 1-(2-methoxyethyl)-N-(5-(4-(trifluoromethyl)phenethoxy)-1H-indol-3-yl)azetidine-3-carboxamide]	6.00 to 6.70
O=C(Nc1c[nH]c2ccc(OCCc3ccc(C(F)(F)F)cc3)cc12)C1CN(CCC(F)(F)F)C1 [Compound 299, N-(5-(4-(trifluoromethyl)phenethoxy)-1H-indol-3-yl)-1-(3,3,3-trifluoropropyl)azetidine-3-carboxamide]	6.00 to 6.70
CO[C@H]1C[C@H](C(=O)Nc2c[nH]c3ccc(OCc4ccc(C(F)(F)F)cc4)cc23)C1 [Compound 300, trans-3-methoxy-N-(5-((4-(trifluoromethyl)benzyl)oxy)-1H-indol-3-yl)cyclobutane-1-carboxamide]	6.70 to 7.40
CC1(C(=O)Nc2c[nH]c3ccc(OCc4ccc(C(F)(F)F)cc4)cc23)CC1 [Compound 301, 1-methyl-N-(5-((4-(trifluoromethyl)benzyl)oxy)-1H-indol-3-yl)cyclopropane-1-carboxamide]	6.00 to 6.70
O=C(Nc1c[nH]c2ccc(O[C@H]3C[C@@H](c4ccc(C(F)(F)F)cc4)C3)cc12)C1(F)CC1 [Compound 302, 1-fluoro-N-(5-(cis-3-(4-(trifluoromethyl)phenyl)cyclobutoxy)-1H-indol-3-yl)cyclopropane-1-carboxamide]	6.00 to 6.70
CN1CC(C(=O)Nc2c[nH]c3ccc(OCC[C@@H]4C[C@@H]5CN(CC(F)(F)F)C[C@@H]5C4)cc23)C1 [Compound 303, 1-methyl-N-(5-(2-((3aR,5r,6aS)-2-(2,2,2-trifluoroethyl)octahydrocyclopenta[c]pyrrol-5-yl)ethoxy)-1H-indol-3-yl)azetidine-3-carboxamide]	4.00 to 5.30
N#CC1CCC1C(=O)Nc1c[nH]c2ccc(OCC[C@@H]3C[C@@H]4CN(CC(F)(F)F)C[C@@H]4C3)cc12 (stereo partly drawn) [Compound 304, 2-cyano-N-(5-(2-((3aR,5r,6aS)-2-(2,2,2-trifluoroethyl)octahydrocyclopenta[c]pyrrol-5-yl)ethoxy)-1H-indol-3-yl)cyclobutane-1-carboxamide]	6.00 to 6.70
COCC1(C(=O)Nc2c[nH]c3ccc(OCC[C@@H]4C[C@@H]5CN(CC(F)(F)F)C[C@@H]5C4)cc23)CC1 [Compound 305, 1-(methoxymethyl)-N-(5-(2-((3aR,5r,6aS)-2-(2,2,2-trifluoroethyl)octahydrocyclopenta[c]pyrrol-5-yl)ethoxy)-1H-indol-3-yl)cyclopropane-1-carboxamide]	5.30 to 6.00
CC1(C(=O)Nc2c[nH]c3ccc(OCC[C@@H]4C[C@@H]5CN(CC(F)(F)F)C[C@@H]5C4)cc23)CCOC1 (stereo partly drawn) [Compound 306, 3-methyl-N-(5-(2-((3aR,5r,6aS)-2-(2,2,2-trifluoroethyl)octahydrocyclopenta[c]pyrrol-5-yl)ethoxy)-1H-indol-3-yl)tetrahydrofuran-3-carboxamide]	6.00 to 6.70
O=C(Nc1c[nH]c2ccc(OCC[C@@H]3C[C@@H]4CN(CC(F)(F)F)C[C@@H]4C3)cc12)C1CC1(F)F (stereo partly drawn) [Compound 307, 2,2-difluoro-N-(5-(2-((3aR,5r,6aS)-2-(2,2,2-trifluoroethyl)octahydrocyclopenta[c]pyrrol-5-yl)ethoxy)-1H-indol-3-yl)cyclopropane-1-carboxamide]	6.00 to 6.70
O=C(Nc1c[nH]c2ccc(CCOc3ccc(C(F)(F)F)cc3)cc12)C1CC(CO)C1 (stereo not drawn) [Compound 308, 3-(hydroxymethyl)-N-(5-(2-(4-(trifluoromethyl)phenoxy)ethyl)-1H-indol-3-yl)cyclobutane-1-carboxamide]	6.70 to 7.40
CC1(C(=O)Nc2c[nH]c3ccc(CCOc4ccc(C(F)(F)F)cc4)cc23)CCC1 [Compound 309, 1-methyl-N-(5-(2-(4-(trifluoromethyl)phenoxy)ethyl)-1H-indol-3-yl)cyclobutane-1-carboxamide]	6.70 to 7.40
O=C(Nc1c[nH]c2ccc(CCOc3ccc(C(F)(F)F)cc3)cc12)C1CC(O)C1 (stereo not drawn) [Compound 310, 3-hydroxy-N-(5-(2-(4-(trifluoromethyl)phenoxy)ethyl)-1H-indol-3-yl)cyclobutane-1-carboxamide]	6.70 to 7.40
CN1CC(C(=O)Nc2c[nH]c3ccc(OCCc4ccc(C(F)(F)F)cc4)cc23)C1 [Compound 311, 1-methyl-N-(5-(4-(trifluoromethyl)phenethoxy)-1H-indol-3-yl)azetidine-3-carboxamide]	5.30 to 6.00
O=C(Nc1c[nH]c2ccc(OCCc3ccc(C(F)(F)F)cc3)cc12)C1CC(CO)C1 (stereo not drawn) [Compound 312, 3-(hydroxymethyl)-N-(5-(4-(trifluoromethyl)phenethoxy)-1H-indol-3-yl)cyclobutane-1-carboxamide]	6.70 to 7.40
CC(=O)Nc1c[nH]c2ccc(OCC[C@@H]3C[C@@H]4CN(CC(F)F)C[C@@H]4C3)cc12 [Compound 313, N-(5-(2-((3aR,5r,6aS)-2-(2,2-difluoroethyl)octahydrocyclopenta[c]pyrrol-5-yl)ethoxy)-1H-indol-3-yl)acetamide]	5.30 to 6.00
CC(C)(C)CC(=O)Nc1c[nH]c2ccc(OCc3ccc(C(F)(F)F)cc3)cc12 [Compound 314, 3,3-dimethyl-N-(5-((4-(trifluoromethyl)benzyl)oxy)-1H-indol-3-yl)butanamide]	6.00 to 6.70
O=C(Nc1c[nH]c2ccc(OCc3ccc(C(F)(F)F)cc3)cc12)C1(C(F)(F)F)CC1 [Compound 315, 1-(trifluoromethyl)-N-(5-((4-(trifluoromethyl)benzyl)oxy)-1H-indol-3-yl)cyclopropane-1-carboxamide]	6.00 to 6.70
CC(C)(C)C(=O)Nc1c[nH]c2ccc(OCc3ccc(C(F)(F)F)cc3)cc12 [Compound 316, N-(5-((4-(trifluoromethyl)benzyl)oxy)-1H-indol-3-yl)pivalamide]	6.00 to 6.70
O=C(Nc1c[nH]c2ccc(OCc3ccc(C(F)(F)F)cc3)cc12)C1CC1 [Compound 317, N-(5-((4-(trifluoromethyl)benzyl)oxy)-1H-indol-3-yl)cyclopropanecarboxamide]	6.00 to 6.70
O=C(Nc1c[nH]c2ccc(OCc3ccc(C(F)(F)F)cc3)cc12)C1CC1(F)Cl (stereo not drawn) [Compound 318, 2-chloro-2-fluoro-N-(5-((4-(trifluoromethyl)benzyl)oxy)-1H-indol-3-yl)cyclopropane-1-carboxamide]	6.00 to 6.70
COCC1(C(=O)Nc2c[nH]c3ccc(OCc4ccc(C(F)(F)F)cc4)cc23)CC1 [Compound 319, 1-(methoxymethyl)-N-(5-((4-(trifluoromethyl)benzyl)oxy)-1H-indol-3-yl)cyclopropane-1-carboxamide]	6.00 to 6.70
